Test results: ChEMBL document CHEMBL4007493 (J Med Chem, 2017)
pEC50, pIC50, pKi: −log10 of the molar value.

Key:
[1] = target: T1, D(2) dopamine receptor (Homo sapiens, UniProt P14416); assay: biochemical
[2] = target: T2, D(3) dopamine receptor (Homo sapiens, UniProt P35462); assay: biochemical
[3] = target: T1, D(2) dopamine receptor; assay: Antagonist activity at human dopamine D2 receptor expressed in HEK293 cells coexpressing renilla luciferase-fused GalphaoA/GFP10-fused Ggamma2 assessed as inhibition of quinpirole-induced GalphaoA activation by BRET assay relative to quinpirole; format: cell-based
[4] = target: T1, D(2) dopamine receptor
[5] = target: T1, D(2) dopamine receptor; remark: listed apart in the source
[6] = target: T1, D(2) dopamine receptor; remark: listed apart in the source
[7] = target: T1, D(2) dopamine receptor; remark: listed apart in the source
[8] = target: T1, D(2) dopamine receptor; remark: listed apart in the source
[9] = target: T1, D(2) dopamine receptor; assay: Antagonist activity at human dopamine D2 receptor expressed in forskolin stimulated-HEK293 cells coexpressing renilla luciferase-fused Galphai1/GFP10-fused Ggamma2 assessed as inhibition of quinpirole-induced Galphai1 activation by BRET assay relative to quinpirole; format: cell-based
[10] = target: T1, D(2) dopamine receptor; remark: listed apart in the source
[11] = target: T1, D(2) dopamine receptor; assay: Antagonist activity at renilla luciferase-tagged human dopamine D2 receptor expressed in HEK293 cells coexpressing mVenus-fused beta-arrestin 2 assessed as reduction in quinpirole-mediated beta-arrestin 2 recruitment preincubated for 15 mins followed by quinpirole addition measured for 1 sec by BRET assay relative to quinpirole; format: cell-based
[12] = target: T1, D(2) dopamine receptor; assay: Antagonist activity at human dopamine D2 receptor expressed in HEK293 cells assessed as reduction in quinpirole-mediated cAMP inhibition preincubated for 15 mins followed by quinpirole addition measured for 1 sec by BRET assay relative to quinpirole; format: functional, cell-based
[13] = target: T1, D(2) dopamine receptor; remark: listed apart in the source
[14] = target: T2, D(3) dopamine receptor

T2 sequence (P35462 whole entry, the tested form may be a part): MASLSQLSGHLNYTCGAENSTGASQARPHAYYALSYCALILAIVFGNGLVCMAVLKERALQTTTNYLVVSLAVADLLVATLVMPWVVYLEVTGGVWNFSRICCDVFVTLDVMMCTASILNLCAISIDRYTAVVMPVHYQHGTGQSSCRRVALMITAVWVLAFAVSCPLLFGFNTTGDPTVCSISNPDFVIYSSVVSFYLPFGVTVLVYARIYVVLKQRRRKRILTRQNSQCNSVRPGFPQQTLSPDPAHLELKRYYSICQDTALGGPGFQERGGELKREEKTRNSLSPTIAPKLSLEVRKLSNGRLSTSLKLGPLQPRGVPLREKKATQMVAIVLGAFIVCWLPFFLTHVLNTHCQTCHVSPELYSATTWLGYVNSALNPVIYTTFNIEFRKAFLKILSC
T1 sequence (P14416 whole entry): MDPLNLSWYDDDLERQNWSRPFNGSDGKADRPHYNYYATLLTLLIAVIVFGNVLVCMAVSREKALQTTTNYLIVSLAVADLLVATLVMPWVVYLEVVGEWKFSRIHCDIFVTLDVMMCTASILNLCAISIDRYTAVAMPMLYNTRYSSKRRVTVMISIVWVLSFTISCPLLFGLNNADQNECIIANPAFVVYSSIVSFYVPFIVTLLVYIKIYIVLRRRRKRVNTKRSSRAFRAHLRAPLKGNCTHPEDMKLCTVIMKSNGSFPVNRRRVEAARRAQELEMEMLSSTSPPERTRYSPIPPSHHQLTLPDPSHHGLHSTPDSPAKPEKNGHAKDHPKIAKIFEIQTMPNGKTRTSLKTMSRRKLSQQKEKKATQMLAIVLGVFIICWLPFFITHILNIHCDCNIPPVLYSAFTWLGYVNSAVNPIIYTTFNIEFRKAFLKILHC

SMILES	pKi [1]	pKi [2]	Imax [3] [%]	pEC50 [4]	pEC50 [5]	pIC50 [6]	pEC50 [7]	pIC50 [8]	Imax [9] [%]	pEC50 [10]	Imax [11] [%]	Imax [12] [%]	pIC50 [13]	pKi [14]
CN[C@@H]1Cc2cccc3c2n(c(=O)n3CCCCCCCCCCCCOCCCCc2ccccc2)C1	6.91	6.85												
CCCN(CCCCNC(=O)c1cc2ccccc2[nH]1)[C@@H]1Cc2cccc3c2n(c(=O)n3CCC)C1			-40	6.03	6.34	5.53	5.94	5.34	-31	6.47	-28	-10 to 0		
CCCN(CCC)[C@@H]1Cc2cccc3c2n(c(=O)n3CCC)C1			-24	7.69	9.05	6.03	7.77	7.00	-45	9.00	-23		6.80	
CCCN(CCC)[C@@H]1Cc2cccc3c2n(c(=O)n3CCCCNC(=O)c2cc3ccccc3[nH]2)C1			-27	6.57	7.24	5.44	6.73	5.70	-64	7.27	-41	-10 to 0	6.15	
CN[C@@H]1Cc2cccc3c2n(c(=O)n3CCOCCOCCOCCOc2ccc3c(c2)NC(=O)CC3)C1	6.51	6.19	-18	5.73	5.97		5.40		-66	6.00	-67	-10 to 0		
CN[C@@H]1Cc2cccc3c2n(c(=O)n3CCCCOc2ccc3c(c2)NC(=O)CC3)C1	6.47	5.87	-64	5.82	6.98	5.39	6.15		-34	6.59	-27	-10 to 0		
CN[C@@H]1Cc2cccc3c2n(c(=O)n3CCCCCCCCCCCCOc2ccc3c(c2)NC(=O)CC3)C1	6.55	6.22	-71		6.18		6.24		-141	5.84	-13	-10 to 0		
CN[C@@H]1Cc2cccc3[nH]c(=O)n(c23)C1 [SUMANIROLE]														6.24

Continued, in another order:

pKi [1]	pKi [2]	Imax [3] [%]	pEC50 [4]	pEC50 [5]	pIC50 [6]	pEC50 [7]	pIC50 [8]	Imax [9] [%]	pEC50 [10]	Imax [11] [%]	Imax [12] [%]	SMILES	pIC50 [13]	pKi [14]
7.41	7.11	-67						-59		-10 to 0	-10 to 0	CN[C@@H]1Cc2cccc3c2n(c(=O)n3CCCCCCCCOCCCCc2ccccc2)C1		
7.73	6.94											CCCN[C@@H]1Cc2cccc3c2n(c(=O)n3CCCCNC(=O)c2cc3ccccc3[nH]2)C1		
7.46	6.25	-83	6.86	7.05		6.17		-72	6.55	-47	-10 to 0	CN[C@@H]1Cc2cccc3c2n(c(=O)n3CCOCCOCCOCCCCc2ccccc2)C1		
7.26	7.09											CCCN[C@@H]1Cc2cccc3c2n(c(=O)n3CCCCCCOCCCCc2ccccc2)C1		
6.92	6.42											CN[C@@H]1Cc2cccc3c2n(c(=O)n3CCCCOCCCCc2ccccc2)C1		
7.22	6.86											CN[C@@H]1Cc2cccc3c2n(c(=O)n3CCCCCCOCCCCc2ccccc2)C1		
7.43	7.03		6.71	7.61		6.71			7.59			CCCN[C@@H]1Cc2cccc3c2n(c(=O)n3CCCCOCCCCc2ccccc2)C1		
7.66	8.61											CCCn1c(=O)n2c3c(cccc31)C[C@@H](N(C)CCCCNC(=O)c1cc3ccccc3[nH]1)C2		
6.95	6.64	-36	5.61	6.45		5.73		-87	5.91	-13		CN[C@@H]1Cc2cccc3c2n(c(=O)n3CCOCCOCCCCc2ccccc2)C1		
7.62	6.95	-33	5.60		5.35		6.10	-80	6.15	-10 to 0	-10 to 0	CN[C@@H]1Cc2cccc3c2n(c(=O)n3CCCCCCCCCCOCCCCc2ccccc2)C1		
7.40	6.42		7.13	6.80		6.72			8.51			CN(CCCCOc1ccc2c(c1)NC(=O)CC2)[C@@H]1Cc2cccc3[nH]c(=O)n(c23)C1		
